For 66 molecules, logD results are on record in ChEMBL document CHEMBL3301361, “Experimental in vitro DMPK and physicochemical data on a set of publicly disclosed compounds”.

The nature of the data set: physchem. The note with it: octan-1-ol/water.

Consider `COc1ccc(Cn2c(=O)[nH]c3c(=O)n(CC(=O)NC(C(=O)C(F)(F)F)C(C)C)c(-c4ccccc4)cc3c2=O)cc1` (stereo unspecified), for which, for the setting “pH 7.4, LogD7.4”, the log distribution coefficient (logD) (in general, the decadic logarithm of the distribution of all forms, ionised or not, between an organic phase and buffer at a given pH) came to 2.93.
With `C#CCn1c(=O)c2c(-c3cc(C#N)cn3C)n(Cc3ccnc4ccc(Cl)cc34)nc2n(CC2CC2)c1=O`, the pH-dependent lipophilicity (logD) (pH 7.4, LogD7.4) turned out to be 3.96.
As to `CC(C)Cn1c(=O)[nH]c(=O)c2c(C(=O)N3CCC3)c(Cc3ccccc3C(F)(F)F)sc21`, where the note is “pH 7.4, LogD7.4”, the logD is 3.
The same measure, in the same setting: in the case of `N#CCc1c[nH]c2ccc(OCc3ccccc3)cc12` it was 3.71; in that of `C[C@@H](O)[C@@H](CO)Nc1nc(SCc2cccc(F)c2F)nc2nc(N)sc12`, 2.83.
`CCC1(c2ccccc2)C(=O)NC(=O)NC1=O` [PHENOBARBITAL] yielded a pH-dependent lipophilicity (logD) (pH 7.4) of 0.05.
In turn, `O=C(CCCc1ccncc1)N1CCN(c2ccc(Cl)cc2Cl)CC1` showed a logD (pH 7.4, LogD7.4) of 3.93.
Same read-out and setting: under `CN1C(=O)CC(c2ccccc2)C1=O` (stereo unspecified) [PHENSUXIMIDE] stands 0.68.
Where the note is “pH 7.4”, `Nc1nc(Nc2ccc3nc(-c4ccc(F)cc4)cc(N)c3c2)cc(-c2cccc(Cl)c2)n1` returned a logD of 2.5.
With `O=C(O)c1ccccc1C(=O)N1CCC(N2CCC(Oc3ccc(Cl)c(Cl)c3)CC2)CC1`, the pH-dependent lipophilicity (logD) (pH 7.4, LogD7.4) was 1.73.
As for `O=C(NCC12CC3CC(CC(C3)C1)C2)c1cc(C2CCNCC2)ccc1Cl`, for the setting “pH 7.4, LogD7.4”, the pH-dependent lipophilicity (logD) came out at 1.58.
`CCCC(C)(COC(N)=O)COC(=O)NC(C)C` (stereo unspecified) [CARISOPRODOL] returned a pH-dependent lipophilicity (logD) (pH 7.4) of 2.01.
As to `Cc1ncc(-c2nc(Nc3ccc(C(=O)N(C)C)cc3)ncc2F)n1C(C)C`, the logD (pH 7.4, LogD7.4) amounted to 2.77.
On the same count and under the same terms, in the case of `Cc1ccccc1N1C(=O)c2cc(S(N)(=O)=O)c(Cl)cc2NC1C` (stereo unspecified) [METOLAZONE] it was 1.64; in that of `Cn1cnc2cc(OC(=O)c3ccccc3)cnc21`, 2.4.
Regarding `CC(C)Nc1ccc2cnn(-c3cncc(-n4ccc(CC(=O)O)c4)n3)c2c1`, the logD (pH 7.4, LogD7.4) was determined as 1.24.
`O=C(O)CCC(=O)N1CCC(c2nc(-c3cccs3)no2)CC1`: the log distribution coefficient (logD) (pH 7.4) is -1.27.
Regarding `COC(=O)CCC(=O)Nc1ccc2c(c1)-c1ccccc1C(=O)C2=O`, for the setting “pH 7.4, LogD7.4”, the pH-dependent lipophilicity (logD) is 2.72.
In turn, `Oc1ccc(Br)c2ccccc12` gave a logD (pH 7.4) of 4.3.
As for `COc1ccc(-c2coc3cc(OC)cc(OC)c3c2=O)cc1` [BIOCHANIN A, DIMETHYL ETHER], the logD (pH 7.4, LogD7.4) was 3.05.
In turn, `O=C(c1ccc(C(=C2CCN(Cc3cscn3)CC2)c2cccc3cccnc23)cc1)N1CCOCC1` yielded a pH-dependent lipophilicity (logD) (pH 7.4) of 2.12.
Where the note is “pH 7.4, LogD7.4”, `CC[C@H](NC(=O)c1c([S+](C)[O-])c(-c2ccccc2)nc2cc(F)ccc12)c1ccccc1` (stereo partly specified) returned a log distribution coefficient (logD) of 3.62.
In turn, `CC(C)c1ccccc1Cc1cc(C(=O)Nc2ccc(S(=O)(=O)c3ccccc3C(C)(C)C)cc2)c(O)c(O)c1O` displayed a pH-dependent lipophilicity (logD) (pH 7.4, LogD7.4) of 3.44.
On to `CC(C)OC(=O)N1CCC(Oc2ncnc3c2CCN3c2ccc(S(C)(=O)=O)cc2F)CC1`, for which the pH-dependent lipophilicity (logD) (pH 7.4, LogD7.4) is 3.4.
For the setting “pH 7.4, LogD7.4”, `CC(C)C(NC(=O)Cn1c(-c2ccccc2)ccc(NC(=O)OCc2ccccn2)c1=O)C(=O)C(F)(F)F` (stereo unspecified) had a logD of 1.91.
`NC(=O)c1cn([C@@H]2O[C@H](CO)[C@@H](O)[C@H]2O)c2ncnc(N)c12` [SANGIVAMYCIN] displayed a logD (pH 7.4) of -0.87.
Regarding `NC(=O)c1cnc(N[C@H]2CCCNC2)c2cc(-c3ccc(F)c(Cl)c3)sc12`, the log distribution coefficient (logD) (pH 7.4, LogD7.4) stood at 2.94.
For the setting “pH 7.4, LogD7.4”, `CN1CC=CCC(c2cc3ccccc3o2)C1` (stereo unspecified) gave a pH-dependent lipophilicity (logD) of 2.47.
Under “pH 7.4, LogD7.4”, `COc1ccc(Cl)c(Nc2ncnc3cc(OC)cc(OC4CCN(C)CC4)c23)c1` registered a logD of 3.6.
Where the note is “pH 7.4, LogD7.4”, `COc1cc(C(=O)c2cc(Cl)ccc2N)cc(OC)c1OC` displayed a logD of 3.38.
`Clc1ccc2c(c1Nc1ncnc3cc(OCCN4CCCC4)cc(OC4CCOCC4)c13)OCO2` had a pH-dependent lipophilicity (logD) (pH 7.4, LogD7.4) of 2.6.
With `COc1ccccc1OCC(O)COC(N)=O` (stereo unspecified) [METHOCARBAMOL], where the note is “pH 7.4, LogD7.4”, the logD was found to be 0.36.
For the molecule `N=C(N)NCCC[C@H](NC(=O)COCC(c1ccccc1)c1ccccc1)C(=O)O`, for the setting “pH 7.4, LogD7.4”, the pH-dependent lipophilicity (logD) was 0.18.
As for `COC(=O)c1nc2c(N[C@H](C)CO)nc(SCc3cccc(F)c3F)nc2[nH]c1=O`, the pH-dependent lipophilicity (logD) (pH 7.4, LogD7.4) was found to be 2.49.
In turn, `Cc1cc(O)nc(-n2nc(C)c(Oc3ccccc3O)c2C)n1` displayed a pH-dependent lipophilicity (logD) (pH 7.4) of 1.4.
In the case of `Cn1c(CN2CCN(c3ccc(Cl)cc3)CC2)nc2ccccc21`, the logD (pH 7.4, LogD7.4) was found to be 3.54.
For the setting “pH 7.4”, `CCC1(C)CC(=O)NC1=O` (stereo unspecified) [ETHOSUXIMIDE] came in with a pH-dependent lipophilicity (logD) of 0.23.
Take `Clc1cccc2cn[nH]c12`: the logD (pH 7.4, LogD7.4) came out at 2.33.
The molecule `CCOC(=O)c1ccc(COC2CN(c3ccc(C)nn3)C2)cc1` showed a logD (pH 7.4, LogD7.4) of 2.5.
Same read-out and setting: in the case of `NC(=O)Nc1sc(-c2ccc(F)cc2)cc1C(=O)N[C@H]1CCCNC1` it was 1.76; in that of `Cc1ccc(F)c(Nc2ccnc(Nc3ccc(OCC(O)CN(C)C)cc3)n2)c1` (stereo unspecified), 2.1.
The molecule `CCCc1c(OCCCSc2ccc(CC(=O)O)cc2Cl)ccc2c(CC)noc12` [L-165461] had a pH-dependent lipophilicity (logD) (pH 7.4, LogD7.4) of 3.92.
Take `C1=CCC(c2ccc3ccccc3c2)CNC1` (stereo unspecified): the logD (pH 7.4, LogD7.4) amounted to 1.64.
`Cn1c(=O)c2c(-c3ccc(S(C)(=O)=O)o3)n(Cc3ccnc4ccc(Cl)cc34)nc2n(CC2CC2)c1=O` had a log distribution coefficient (logD) (pH 7.4, LogD7.4) of 2.71.
`COc1cccc(OC)c1-c1ccc(C[C@H](NC(=O)c2c(Cl)cccc2Cl)C(=O)O)cc1` had a logD (pH 7.4, LogD7.4) of -0.27.
As for `Cc1ncc(-c2nc(Nc3ccc(C(=O)N4CCCN(C)CC4)cc3)ncc2F)n1C(C)C`, the log distribution coefficient (logD) (pH 7.4, LogD7.4) amounted to 2.02.
For the setting “pH 7.4, LogD7.4”, `CCC(c1nc2ccsc2c(=O)n1Cc1cscn1)N(CCCN)C(=O)c1ccc(C)cc1` (stereo unspecified) gave a logD of 0.02.
On the same count and under the same terms, in the case of `CNCC[C@@H](Oc1ccccc1C)c1ccccc1` [ATOMOXETINE] it was 1.2.
`c1ccc(-c2cc(NCCCCCCCCNc3cc(-c4ccccc4)nc4ccccc34)c3ccccc3n2)cc1` gave a logD (pH 7.4, LogD7.4) of 2.27.
As for `CCN1CCN(C(=O)c2cc3cc(F)ccc3[nH]2)CC1`, where the note is “pH 7.4”, the logD amounted to 2.28.
For the molecule `COc1cccc([C@@H](C)NCCCc2ccccc2Cl)c1`, the logD (pH 7.4, LogD7.4) stood at 3.
In the case of `C[S+]([O-])CCN1C(=O)C(NC(=O)c2cc3cc(Cl)sc3[nH]2)Cc2ccccc21` (stereo unspecified), the log distribution coefficient (logD) (pH 7.4, LogD7.4) turned out to be 3.17.
`NC(=O)c1cccc(OC2CCN(Cc3ccccc3)CC2)c1`: the logD (pH 7.4, LogD7.4) amounted to 1.92.
Under “pH 7.4”, `COC(=O)N1CCN(C(=O)Cc2ccc(Cl)c(Cl)c2)[C@H](CN2CCCC2)C1` displayed a logD of 2.05.
On to `CSc1nc(C(N)=O)c(N)s1`, for which the pH-dependent lipophilicity (logD) (pH 7.4, LogD7.4) came to 1.21.
`Cc1ccc(S(=O)(=O)c2ccccc2)cc1` showed a logD (pH 7.4, LogD7.4) of 2.74.
`CCCCNc1nc(N)c2[nH]c(=O)n(Cc3ccc(OCCN(C)C)nc3)c2n1` registered a logD (pH 7.4, LogD7.4) of 1.9.
In turn, `O=C(Nc1ccc(Cl)c(Cl)c1)N1CCN(C[C@@H]2CCCN(CC3CC3)C2)CC1` showed a log distribution coefficient (logD) (pH 7.4, LogD7.4) of 2.54.
`O=S(=O)(Nc1ncc(Cl)s1)c1cc(F)c(Oc2ccc(F)cc2-c2cn[nH]c2)cc1F`: for the setting “pH 7.4, LogD7.4”, the log distribution coefficient (logD) amounted to 2.7.
On to `Cc1sc2ncnc(SCC(=O)N3CCN(C(=O)c4ccco4)CC3)c2c1C`, for which, under “pH 7.4, LogD7.4”, the logD was found to be 2.7.
`Cc1ccc(CN2[C@@H]3CC[C@H]2C[C@H](Oc2cccc(C(N)=O)c2)C3)s1` had a logD (pH 7.4) of 2.44.
Molecule `Cc1nc(NC(=N)N)nc2ccccc12` came in with a pH-dependent lipophilicity (logD) (pH 7.4, LogD7.4) of -0.49.
Take `CC1CC(=O)Nc2ccccc2N1` (stereo unspecified): the pH-dependent lipophilicity (logD) (pH 7.4, LogD7.4) turned out to be 0.56.
For the molecule `O=C(NC[C@@H](O)CN1CCC(Oc2ccc(Cl)c(Cl)c2)CC1)c1c[nH]c(=O)c2c(F)cccc12`, the log distribution coefficient (logD) (pH 7.4, LogD7.4) worked out at 3.15.
For the setting “pH 7.4”, `CC(=O)O[C@H]1CC[C@]2(C=O)[C@H]3CC[C@]4(C)[C@@H](C5=CC(=O)OC5)CC[C@]4(O)[C@@H]3CC[C@]2(O)C1` [STROPHANTHIDIN ACETATE] had a logD of 0.64.
As to `Fc1ccc(C(COCc2cc(C(F)(F)F)cc(C(F)(F)F)c2)N2CCNCC2)cc1` (stereo unspecified), the logD (pH 7.4, LogD7.4) was determined as 3.
